Experimental data taken from paper PMC12356143 (RSC Medicinal Chemistry, 2025).
Values joined by “and” are separate entries in the source; they are usually repeats but may differ in a detail not shown here. Identical values can stand only once.

Tests used:
[1] = target: M^pro L50F/E166A/L167F (Severe acute respiratory syndrome coronavirus 2, UniProt P0DTD1, E3429A/L3313F/L3430F); details: for K M / k cat: pH 7.6
[2] = target: SARS-CoV-2 M^pro L50F/E166A/L167F (Severe acute respiratory syndrome coronavirus 2, UniProt P0DTD1, E3429A/L3313F/L3430F); assay type: biochemical

2-Abz-KTSAVLQ↓SGY^(NO2)RKME-OH
Km [1]: 250 µM
K M [1]: 250 µM
k cat [1]: 0.19 ± 0.04 s⁻¹

2-Abz-SVTLQ↓SGY^(NO2)R-OH
Km [1]: 320 µM
lower catalytic efficiency of the M^pro triple mutant compared to the WT M^pro [1]: ~35 times
K M [1]: 320 µM
k cat [1]: 0.26 s⁻¹ and 0.26 ± 0.05 s⁻¹

COc1cccc2[nH]c(C(=O)N3C[C@H](C(F)(F)F)C[C@H]3C(=O)N[C@H](C#N)C[C@@H]3CCNC3=O)cc12 [compound 1]
inhibition of L50F/E166A/L167F, result in words [2]: inactive

CC(C)C[C@H](NC(=O)OCc1cccc(F)c1)C(=O)N[C@@H](Cc1cscn1)C(O)S(=O)(=O)O (some centres unmarked) [compound 2]
inhibition of L50F/E166A/L167F, result in words [2]: does not significantly alter binding potency

O=C(NC(Cc1ccccc1)C(=O)NC(CC1CCNC1=O)C(O)S(=O)(=O)O)OCc1cccc(F)c1 (centres unmarked) [compound 3]
inhibition of L50F/E166A/L167F, result in words [2]: inactive

COc1cccc2[nH]c(C(=O)NC(CC3CC3)C(=O)NC(CC3CCNC3=O)C(O)S(=O)(=O)O)cc12 (centres unmarked) [compound 4]
improvement in inhibition compared to nirmatrelvir [2]: approximately 30 fold
